This note sets out measurements from patent US20240390512A1, “METHODS OF TREATING CHEMOTHERAPY-RESISTANT CANCER WITH AN ANTIBODY-DRUG CONJUGATE” (DAIICHI SANKYO COMPANY, LIMITED, priority 2021, published 2024).

Experiment [1] concerns Human ovarian cancer cell line OV-90. Briefly: Antitumor study (2), combination with carboplatin, OV-90 xenograft. Particulars: Day 21; ADC (1) 1 mg/kg iv Day 0, carboplatin 50 mg/kg iv Day 0.
Text: Human ovarian cancer cell line OV-90, which was purchased from ATCC, was suspended into Matrigel (Corning Inc.), subcutaneously transplanted at 2.5×10^6 cells into the right side of female nude mice, and the mice were randomly grouped 14 days after the transplantation (Day 0). […] Single administration groups of each drug, a combined administration group, and a solvent administration group as a control group were set up.
The subject of experiment [2] is Human ovarian cancer cell line NIH:OVCAR-3. Briefly: Antitumor study (1), combination with carboplatin, NIH:OVCAR-3 xenograft. Particulars: Day 21; ADC (1) 0.3 mg/kg iv Day 0, carboplatin 50 mg/kg iv Day 0.
Experimental: Human ovarian cancer cell line NIH:OVCAR-3, which was purchased from ATCC, was suspended into Matrigel (Corning Inc.), subcutaneously transplanted at 1.0×10^7 cells into the right side of female nude mice, and the mice were randomly grouped 24 days after the transplantation (Day 0). The antibody-drug conjugate (1) (formula 4) (DAR: 7.9) was intravenously administered to the tail vein at a dose of 0.3 mg/kg on Day 0. […] Single administration groups of each drug, a combined administration group, and a solvent administration group as a control group were set up.
For experiment [3], the system named is Human ovarian cancer cell line OV-90. Briefly: Antitumor study (4), combination with gemcitabine, OV-90 xenograft. In kind it is in vivo, mouse. Particulars: Day 21; ADC (1) 3 mg/kg iv Day 0, gemcitabine 15 mg/kg iv Day 0, 7, 14. The method, then:
Measurement and calculation formula: In the study, the major axis and minor axis of tumors were measured up to 3 times a week with an electronic digital caliper (CD15-CX, Mitutoyo Corp.), and the tumor volume (mm^3) was calculated. The calculation formula is as shown below.

The test system of experiment [4] is Human ovarian cancer cell line NIH:OVCAR-3. Briefly: In vivo antitumor effect after long-term treatment of carboplatin and paclitaxel, NIH:OVCAR-3 xenograft. Details: species or system mouse. As to conditions: carboplatin 50 mg/kg and paclitaxel 30 mg/kg iv. The method, then:
Measurement and calculation formula: In the study, the major axis and minor axis of tumors were measured up to 3 times a week with an electronic digital caliper (CD15-CX, Mitutoyo Corp.), and the tumor volume (mm^3) was calculated. The calculation formula is as shown below. Tumor volume (mm^3)=½×Major axis (mm)×[Minor axis (mm)]^2.
Carboplatin was diluted with physiological saline, and intravenously administered to the tail vein in a fluid volume of 10 mL/kg. Paclitaxel was dissolved with cremophor and ethanol (1:1), diluted with physiological saline, and then intravenously administered to the tail vein in a fluid volume of 10 mL/kg. The antibody-drug conjugate (formula 4) was diluted with ABS buffer (10 mM acetate buffer [pH 5.5], 5% sorbitol), and intravenously administered to the tail vein in a fluid volume of 10 mL/kg.
For clarity, the antibody comprised in the antibody-drug conjugate (1) administered is referred as “H01L02” in the present invention.

In experiment [5] the test system is Human ovarian cancer cell line OV-90. In kind it is in vivo, mouse. Particulars: Day 15; ADC (1) 10 mg/kg iv Day 0, carboplatin 50 mg/kg iv Day 0, paclitaxel 20 mg/kg iv Day 1. The method, then:
Measurement and calculation formula: In the study, the major axis and minor axis of tumors were measured twice a week with an electronic digital caliper (CD15-CX, Mitutoyo Corp.), and the tumor volume (mm^3) was calculated. The calculation formula is as shown below.

Where two headings read alike, the source gives them in different places.

In the case of `N.N.O=C([O-])C1(C(=O)[O-])CCC1.[Pt+2]` [carboplatin], in experiment [1], the TGI worked out at 23%. Further, in experiment [2], the “tumor growth inhibition (TGI)” value worked out at 47%.
For the molecule `Nc1ccn([C@@H]2O[C@H](CO)[C@@H](O)C2(F)F)c(=O)n1` [gemcitabine], in experiment [3], the TGI is recorded as 23%.
Consider carboplatin and paclitaxel, for which, in experiment [4] (12 mice), the “tumor response to the first dosing” value is “the tumor regressed in all cases”. The “time to tumor regrowth after the first dosing” value in experiment [4] (regrowth in all most cases) is on record as ≤ 6 weeks. For the same molecule, the TGI in experiment [5] turned out to be 65%.
